Among the data in patent US7241893B2, “Thiazolinone 2-substituted quinolines” (Hoffman-La Roche Inc., priority 2004, dated 2007) are Ki values, retold here.

In this assay the target is T1, recombinant human CDK1/Cyclin B complex (Homo sapiens, UniProt P06493).
T1 construct: made in house; host or cells: High Five insect cells (baculovirus) for CDK1/GST-cyclin B; E. coli M15 for the Rb substrate
The assay can be described thus: CDK1/Cyclin B kinase assay (FlashPlate or HTRF). Particulars: Rb protein substrate, Ki=IC50/(1+[S]/Km). Type of assay: biochemical. On the procedure:
To determine inhibition of CDK1 activity, either FlashPlate™ (NEN™-Life Science Products) assay or HTRF assay was performed. Both types of kinase assays were carried out using recombinant human CDK1/Cyclin B complex. GST-cyclinB (GST-cycB) and CDK1 cDNA clones in baculovirus vectors were provided by Dr. W. Harper at the Baylor College of Medicine, Houston, Tex. Proteins were co-expressed in High Five™ insect cells and the complex was purified on glutathione Sepharose resin (Pharmacia, Piscataway, N.J.) as previously described (Harper, J. W. et al. Cell 1993, 75, 805–816). A 6x-Histidine tagged truncated form of retinoblastoma (Rb) protein (amino acid 386–928) was used as the substrate for the CDK1/Cyclin B assay (the expression plasmid was provided by Dr. Veronica Sullivan, Department of Molecular Virology, Roche Research Centre, Welwyn Garden City, United Kingdom). The Rb protein is a natural substrate for phosphorylation by CDK1 (see Herwig and Strauss Eur. J. Biochem. Vol. 246 (1997) pp. 581–601 and the references cited therein). The expression of the 62 Kd protein was under the control of an IPTG inducible promoter in an M15 E. coli strain. Cells were lysed by sonication and purification was carried out by binding lysates at pH 8.0 to a Ni-chelated agarose column pretreated with 1 mM imidazole. The resin was then washed several times with incrementally decreasing pH buffers to pH 6.0, and eluted with 500 mM imidazole. Eluted protein was dialysed against 20 mM HEPES pH 7.5, 30% glycerol, 200 mM NaCl, and 1 mM DTT. Purified Rb fusion protein stocks were quantitated for protein concentration, aliquoted, and stored at −70° C.
For the FlashPlate kinase assay, 96-well FlashPlates were coated with Rb protein at 10 μg/ml, using 100 μl per well. Plates were incubated at 4° C. overnight or at room temperature for 3 hours on a shaker. To control for nonspecific phosphorylation, one row of wells was coated with 100 μl/well coating buffer (20 mM HEPES, 0.2 M NaCl). Plates were then washed twice with wash buffer (0.01% Tween 20 in phosphate-buffered saline). Compounds to be tested (“test compounds”) were added to the wells at 5× final concentration. Reactions were initiated by immediate addition of 40 μl reaction mix (25 mM HEPES, 20 mM MgCl2, 0.002% Tween 20, 2 mM DTT, 1 [M ATP, 4 nM 33P-ATP) and a sufficient amount of enzyme to give counts that were at least 10-fold above background. Plates were incubated at room temperature on a shaker for 30 minutes. Plates were washed four times with the wash buffer, sealed, and counted on the TopCount scintillation counter (Packard Instrument Co., Downers Grove, Ill.]. The percent inhibition of Rb phosphorylation, which is a measure of the inhibition of CDK activity, was determined according to the following formula:
[formula] where “test compound” refers to the average counts per minute of the test duplicates, “nonspecific” refers to the average counts per minute when no CDK1/Cyclin B, etc., was added, and “total” refers to the average counts per minute when no compound was added. […] The value of the inhibitor constant Ki is calculated by the following: Ki=IC50/(1+[S]/Km), where [S] is the ATP concentration and Km is Michaelis constant.
The Homogeneous Time Resolved Fluorescence (HTRF) kinase assay was carried out in 96-well polypropylene plates (BD Biosciences, Bedford, Mass.). […]

T1 sequence (P06493 whole entry): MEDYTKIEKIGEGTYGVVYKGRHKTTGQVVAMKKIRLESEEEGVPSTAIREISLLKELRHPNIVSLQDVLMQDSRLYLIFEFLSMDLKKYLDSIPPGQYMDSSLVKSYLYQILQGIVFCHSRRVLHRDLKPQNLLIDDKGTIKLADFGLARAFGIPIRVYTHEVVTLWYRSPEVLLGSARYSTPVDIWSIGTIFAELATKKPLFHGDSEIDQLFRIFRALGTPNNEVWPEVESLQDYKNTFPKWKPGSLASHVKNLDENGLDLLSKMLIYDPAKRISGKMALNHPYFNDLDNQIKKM
T1 sequence (P14635 whole entry partner): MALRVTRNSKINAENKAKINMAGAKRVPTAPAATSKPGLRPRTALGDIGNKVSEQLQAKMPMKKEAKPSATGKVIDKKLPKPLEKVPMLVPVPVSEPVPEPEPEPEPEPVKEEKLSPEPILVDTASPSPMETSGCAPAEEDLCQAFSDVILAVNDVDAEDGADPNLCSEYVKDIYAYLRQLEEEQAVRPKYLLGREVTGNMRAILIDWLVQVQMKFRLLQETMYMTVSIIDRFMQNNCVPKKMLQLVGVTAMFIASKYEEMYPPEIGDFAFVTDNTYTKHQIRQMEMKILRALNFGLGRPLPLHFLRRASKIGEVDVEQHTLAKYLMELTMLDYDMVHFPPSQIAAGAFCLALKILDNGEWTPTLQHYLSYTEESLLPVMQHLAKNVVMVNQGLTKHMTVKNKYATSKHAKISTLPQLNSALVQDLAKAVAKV

On to `Nc1ccc2cc(/C=C3\SC(N[C@@H]4C[C@H]4c4ccccc4)=NC3=O)ccc2n1` [Example 1, 5-[1-(2-Amino-quinolin-6-yl)-meth-(Z)-ylidene]-2-((1R,2S)-2-phenyl-cyclopropylamino)-thiazol-4-one; compound with trifluoro-acetic acid], for which the Ki turned out to be 0.023 µM. The figure for `CCOc1cc(NC(C)=O)nc2ccc(/C=C3\SC(N)=NC3=O)cc12` [Example 7, N-(6-{2-Amino-4-oxo-4H-thiazol-5-ylidenemethyl}-4-ethoxy-quinolin-2-yl)-acetamide] is 0.097 µM; for `CCOc1cc(N)nc2ccc(/C=C3\SC(N)=NC3=O)cc12` [Example 3, 2-Amino-5-(2-amino-4-ethoxy-quinolin-6-ylmethylene)-thiazol-4-one] it is 0.03 µM. For the compound `CCOc1cc(NC(C)=O)nc2ccc(/C=C3\SC(NC4CC4)=NC3=O)cc12` [Example 5, N-[6-(2-Cyclopropylamino-4-oxo-4H-thiazol-5-ylidenemethyl)-4-ethoxy-quinolin-2-yl]-acetamide], the Ki was 0.085 µM. For `CCOc1cc(NC(C)=O)nc2ccc(/C=C3\SC(NCC4COCCO4)=NC3=O)cc12` (centres unmarked) [Example 9], the Ki amounted to 3.24 µM.
